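A five-concentration, 48-hour dose response in 96-well plates underlies each endpoint, interpolated linearly between surrounding concentrations. Here, GI50 denotes the concentration required for 50% inhibition of growth. TGI: concentration producing complete growth inhibition.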
Key:
Assay in all cases: NCI tumour cell line growth inhibition, 48 h
SK-MEL-2 melanoma = test system: SK-MEL-2 melanoma
OVCAR-3 ovarian = test system: OVCAR-3 ovarian
MOLT-4 leukemia = test system: MOLT-4 leukemia
SN12C renal = test system: SN12C renal
UO-31 renal = test system: UO-31 renal
BT-549 breast = test system: BT-549 breast
UACC-62 melanoma = test system: UACC-62 melanoma
OVCAR-8 ovarian = test system: OVCAR-8 ovarian
NCI-H226 lung = test system: NCI-H226 lung
LOX IMVI melanoma = test system: LOX IMVI melanoma

| Structure (SMILES) | TGI (SK-MEL-2 melanoma) | TGI (OVCAR-3 ovarian) | TGI (MOLT-4 leukemia) | TGI (SN12C renal) | TGI (UO-31 renal) | TGI (BT-549 breast) | TGI (UACC-62 melanoma) | TGI (OVCAR-8 ovarian) | TGI (NCI-H226 lung) | TGI (LOX IMVI melanoma) | GI50 (OVCAR-3 ovarian) |
| --- | --- | --- | --- | --- | --- | --- | --- | --- | --- | --- | --- |
| COc1ccc(N=C2C(=Nc3ccc(OC)cc3)N(c3ccccc3)C(=S)N2N=C=C2Sc3ccccc3N2C)cc1 | > 100 µM | > 100 µM | > 100 µM | > 100 µM | > 100 µM | > 100 µM | > 100 µM | > 100 µM | > 100 µM |  |  |
| COc1cc(/C=C(/C#N)C(N)=O)ccc1O | > 100 µM | > 100 µM | > 100 µM | > 100 µM | > 100 µM |  | > 100 µM | > 100 µM | > 100 µM | > 100 µM |  |
| C#CCOCC12C=CC(O1)C1C(=O)OCC12 (stereo not drawn) |  | > 100 µM | > 100 µM | > 100 µM | > 100 µM | > 100 µM | > 100 µM | > 100 µM | > 100 µM | > 100 µM |  |
| Cc1ccc(N=Nc2c(O)c(C(=O)Nc3ccccc3)cc3ccccc23)c([N+](=O)[O-])c1 | > 100 µM | > 100 µM | > 100 µM | > 100 µM | > 100 µM | > 100 µM | > 100 µM | > 100 µM |  | > 100 µM |  |
| C/C(=C/CC[C@]1(CO)CC[C@]2(CO)[C@H](CC[C@@H]3[C@@]4(C)CC[C@H](OC5OCC(O)C(O)C5OC5OC(CO)C(O)C(O)C5O)C(C)(C)[C@@H]4CC[C@]32C)[C@H]1O)CO (stereo partly drawn) |  | > 100 µM | > 100 µM | > 100 µM | > 100 µM | > 100 µM | > 100 µM | > 100 µM | > 100 µM | > 100 µM |  |
| COc1ccc(CSc2ccccc2Cn2cccc2)cc1OC |  | > 100 µM |  | > 100 µM | > 100 µM | > 100 µM | > 100 µM | > 100 µM | > 100 µM | > 100 µM |  |
| CCCc1ccc(NCc2cc(OC)c(OC)c(OC)c2)cc1 | 44.2 µM | 54.4 µM | 66.2 µM | 53.2 µM | 56.6 µM |  | > 100 µM | > 100 µM |  | 30.7 µM | 19 µM |
| Cc1ccc(/C(O)=C/C(=O)C(=O)NN=C(c2ccccc2)c2ccccc2)cc1 | > 100 µM | > 100 µM | > 100 µM |  | > 100 µM | > 100 µM | > 100 µM | > 100 µM | > 100 µM | > 100 µM |  |
| CC(C)=C/C=C1/CS(=O)(=O)C=C1C | > 100 µM | > 100 µM | > 100 µM | > 100 µM | > 100 µM |  | > 100 µM | > 100 µM | > 100 µM | > 100 µM |  |
| O[C@H]1[C@H](O)[C@@H](O)[C@@]2(O)C[C@@H](O)[C@@H]1N2 |  | > 100 µM | > 100 µM | > 100 µM | > 100 µM |  | > 100 µM | > 100 µM | > 100 µM | > 100 µM |  |
| Fc1ccccc1C1SCc2nc3cc4ccccc4cc3n21 (stereo not drawn) | > 100 µM | > 100 µM | > 100 µM | > 100 µM | > 100 µM | > 100 µM | > 100 µM | > 100 µM | > 100 µM |  |  |
| COc1ccc2oc(=N)c(C(=O)Nc3ccccn3)cc2c1 | > 100 µM | > 100 µM | > 100 µM | > 100 µM |  | > 100 µM | > 100 µM | > 100 µM | > 100 µM | > 100 µM |  |
| CCOC(=O)[C@H](Cc1ccc(O)cc1)N=C1[C@H]2CCC[C@]1(O)[C@@](C)([N+](=O)[O-])C2 |  | > 100 µM | > 100 µM | > 100 µM | > 100 µM | > 100 µM | > 100 µM | > 100 µM | > 100 µM | > 100 µM |  |
| COc1ccc(/C=C2\CN(C)C/C(=C\c3ccc(OC)c(OC)c3OC)C2=O)c(OC)c1OC | 2.4 µM | 0.335 µM | 0.0574 µM | 0.449 µM |  |  | 0.548 µM | 0.343 µM | 2.49 µM | 0.319 µM |  |
| c1ccc2c3c([nH]c2c1)C1CCCN1CC3 (stereo not drawn) | > 10 µM | > 10 µM | > 10 µM | > 10 µM | > 10 µM |  |  | > 10 µM | > 10 µM | > 10 µM |  |
| CC(NC(C)(C)C)C(=O)c1cccc(Cl)c1 (stereo not drawn) | > 100 µM | > 100 µM | > 100 µM | > 100 µM |  |  | > 100 µM | > 100 µM |  | > 100 µM |  |
| COc1cc2c(cc1OC)C1(c3ccc(Cl)cc3)ON=C(c3ccccc3)N1CS2 (stereo not drawn) | > 100 µM | > 100 µM | > 100 µM | > 100 µM | > 100 µM |  | > 100 µM |  | > 100 µM | > 100 µM |  |
| [N-]=[N+]=C1C(=O)C2CC3CC(C2)CC1C3 | > 100 µM | > 100 µM | > 100 µM | > 100 µM | > 100 µM |  | > 100 µM | > 100 µM | > 100 µM | > 100 µM |  |
| COC(=O)CC1NC(=O)C1C1(C)OCCO1 (stereo not drawn) | > 100 µM | > 100 µM |  | > 100 µM | > 100 µM |  | > 100 µM | > 100 µM | > 100 µM | > 100 µM |  |
| Cc1ccc(CC(C)N)cc1 (stereo not drawn) | > 100 µM | > 100 µM | > 100 µM | > 100 µM | > 100 µM |  | > 100 µM | > 100 µM | > 100 µM | > 100 µM |  |
| COc1cc(-c2cc(-c3cc([N+](=O)[O-])c(/C=N/NC(=O)c4ccncc4)o3)ccc2OC)ccc1C | > 100 µM | > 100 µM |  | > 100 µM |  |  | > 100 µM |  | > 100 µM | > 100 µM |  |
| COc1cccc(NC(=O)C(C#N)=C(SC)SC)c1 | > 100 µM |  | > 100 µM | > 100 µM |  | > 100 µM | > 100 µM | > 100 µM | > 100 µM | > 100 µM |  |
| CC(C)(C)c1cc(C2COC(c3cc(C(C)(C)C)c(O)c(C(C)(C)C)c3)CO2)cc(C(C)(C)C)c1O (stereo not drawn) | > 100 µM | > 100 µM |  | > 100 µM | > 100 µM | > 100 µM | > 100 µM | > 100 µM | > 100 µM | > 100 µM |  |
| COC12c3ccccc3-c3ccccc3C1[C@H]1C(=O)OC(=O)[C@H]12 (stereo partly drawn) | > 10 µM | > 10 µM | > 10 µM | > 10 µM | > 10 µM |  |  | > 10 µM | > 10 µM | > 10 µM |  |
